Data as given in the supplement of paper PMC11061612.

Columns and labels:
[1] = tested on: SNU-16 (Gastric Carcinoma); assay: combination Emax (second highest fraction inhibited in the dose matrix, 72 h); higher = more inhibition; extreme values may be limits of the assay
Outline: (§1)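 After 24 hours at 37°C and 5% CO2 in 1536-well plates, cells in DMEM/F12 or RPMI plus 10% FBS received two-drug dose matrices for 72 hours. Viability came from CellTiter-Glo 2.0 luminescence and was scaled as inhibition, anchored at 0 by vehicle wells and at 1 by blank wells. Combination Emax is taken as the second-highest inhibition in the matrix, and Bliss excess as the observed combination effect less EA + EB − EA·EB, with EA and EB the single-agent effects.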

[2] = tested on: WSU-NHL (B-Cell Non-Hodgkin's Lymphoma); assay: as above
Outline: as §1

[3] = tested on: KYAE-1 (Esophageal Adenocarcinoma); assay: as above
Outline: as §1

[4] = tested on: LS-123 (Colorectal Carcinoma); assay: as above
Outline: as §1

[5] = tested on: BE-13 (T-Lymphoblastic Leukemia); assay: as above
Outline: as §1

[6] = tested on: NCI-H524 (Small Cell Lung Carcinoma); assay: as above
Outline: as §1

GAMG (Glioblastoma) [7] = assay: as above
Outline: as §1

[8] = tested on: HH (T-Cell Non-Hodgkin's Lymphoma); assay: as above
Outline: as §1

KS-1 (Glioblastoma) [9] = assay: as above
Outline: as §1

[10] = tested on: HuCCT1 (Biliary Tract Carcinoma); assay: as above
Outline: as §1

EW-11 (Ewing's Sarcoma) [11] = assay: as above
Outline: as §1

[12] = tested on: ESS-1 (Other Solid Carcinomas); assay: as above
Outline: as §1

MPP-89 (Mesothelioma) [13] = assay: as above
Outline: as §1

[14] = tested on: SW1710 (Bladder Carcinoma); assay: as above
Outline: as §1

A673 (Ewing's Sarcoma) [15] = assay: as above
Outline: as §1

LOXIMVI (Melanoma) [16] = assay: as above
Outline: as §1

[17] = tested on: TGBC1TKB (Biliary Tract Carcinoma); assay: as above
Outline: as §1

[18] = tested on: YAPC (Pancreatic Carcinoma); assay: as above
Outline: as §1

[19] = tested on: OVCAR-5 (Ovarian Carcinoma); assay: as above
Outline: as §1

[20] = tested on: LNZTA3WT4 (Low Grade Glioma); assay: as above
Outline: as §1

[21] = tested on: SAS (Oral Cavity Carcinoma); assay: as above
Outline: as §1

[22] = tested on: SNU-449 (Hepatocellular Carcinoma); assay: as above
Outline: as §1

CAL-72 (Osteosarcoma) [23] = assay: as above
Outline: as §1

[24] = tested on: SNU-16 (Gastric Carcinoma); assay: Bliss excess, mean over the matrix (fraction); higher = more synergy
Outline: as §1

[25] = tested on: WSU-NHL (B-Cell Non-Hodgkin's Lymphoma); assay: as above
Outline: as §1

[26] = tested on: KYAE-1 (Esophageal Adenocarcinoma); assay: as above
Outline: as §1

[27] = tested on: LS-123 (Colorectal Carcinoma); assay: as above
Outline: as §1

[28] = tested on: BE-13 (T-Lymphoblastic Leukemia); assay: as above
Outline: as §1

[29] = tested on: NCI-H524 (Small Cell Lung Carcinoma); assay: as above
Outline: as §1

GAMG (Glioblastoma) [30] = assay: as above
Outline: as §1

[31] = tested on: HH (T-Cell Non-Hodgkin's Lymphoma); assay: as above
Outline: as §1

KS-1 (Glioblastoma) [32] = assay: as above
Outline: as §1

[33] = tested on: HuCCT1 (Biliary Tract Carcinoma); assay: as above
Outline: as §1

EW-11 (Ewing's Sarcoma) [34] = assay: as above
Outline: as §1

[35] = tested on: ESS-1 (Other Solid Carcinomas); assay: as above
Outline: as §1

MPP-89 (Mesothelioma) [36] = assay: as above
Outline: as §1

[37] = tested on: SW1710 (Bladder Carcinoma); assay: as above
Outline: as §1

A673 (Ewing's Sarcoma) [38] = assay: as above
Outline: as §1

LOXIMVI (Melanoma) [39] = assay: as above
Outline: as §1

[40] = tested on: TGBC1TKB (Biliary Tract Carcinoma); assay: as above
Outline: as §1

[41] = tested on: YAPC (Pancreatic Carcinoma); assay: as above
Outline: as §1

[42] = tested on: OVCAR-5 (Ovarian Carcinoma); assay: as above
Outline: as §1

[43] = tested on: LNZTA3WT4 (Low Grade Glioma); assay: as above
Outline: as §1

[44] = tested on: SAS (Oral Cavity Carcinoma); assay: as above
Outline: as §1

[45] = tested on: SNU-449 (Hepatocellular Carcinoma); assay: as above
Outline: as §1

CAL-72 (Osteosarcoma) [46] = assay: as above
Outline: as §1
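Wherever Bliss excess, mean over the matrix is given: after 72 h of two-drug dosing.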

For `N#Cc1cnc(Nc2cc(NC[C@H]3CNCCO3)c(C(F)(F)F)cn2)cn1` [SRA737] + Nc1ccn([C@@H]2O[C@H](CO)[C@@H](O)C2(F)F)c(=O)n1 [Gemcitabine] (first compound max 10 µM, 7x7, partner max 0.3 µM), the “combination Emax” value [1] was 1, the “combination Emax” value [2] was 0.993 and the “combination Emax” value [3] was 0.19. The “combination Emax” value [4] was 0.759, the “combination Emax” value [5] was 1 and the “combination Emax” value [6] was 1. The “combination Emax” value (GAMG (Glioblastoma) [7]) was 0.892, the “combination Emax” value [8] was 0.634 and the “combination Emax” value (KS-1 (Glioblastoma) [9]) was 0.5. The “combination Emax” value [10] was 0.792, the “combination Emax” value (EW-11 (Ewing's Sarcoma) [11]) was 0.854 and the “combination Emax” value [12] was 1. The “combination Emax” value (MPP-89 (Mesothelioma) [13]) was 0.656, the “combination Emax” value [14] was 0.676 and the “combination Emax” value (A673 (Ewing's Sarcoma) [15]) was 0.946. For the same molecule, the “combination Emax” value (LOXIMVI (Melanoma) [16]) was 0.881, the “combination Emax” value [17] was 0.457 and the “combination Emax” value [18] was 0.655. For the same molecule, the “combination Emax” value [19] was 0.685, the “combination Emax” value [20] was 0.882 and the “combination Emax” value [21] was 0.956. For the same molecule, the “combination Emax” value [22] was 0.515, the “combination Emax” value (CAL-72 (Osteosarcoma) [23]) was 0.72 and the Bliss excess [24] was -0.103. For the same molecule, the Bliss excess [25] was 0.017, the Bliss excess [26] was 0.0075 and the Bliss excess [27] was 0.0948. For the same molecule, the Bliss excess [28] was 0.0965, the Bliss excess [29] was 0.0346 and the Bliss excess (GAMG (Glioblastoma) [30]) was 0.182. The Bliss excess [31] was 0.0878, the Bliss excess (KS-1 (Glioblastoma) [32]) was 0.0304 and the Bliss excess [33] was 0.0507. For the same molecule, the Bliss excess (EW-11 (Ewing's Sarcoma) [34]) was -0.0557, the Bliss excess [35] was 0.0477 and the Bliss excess (MPP-89 (Mesothelioma) [36]) was 0.0014. For the same molecule, the Bliss excess [37] was 0.164, the Bliss excess (A673 (Ewing's Sarcoma) [38]) was 0.0343 and the Bliss excess (LOXIMVI (Melanoma) [39]) was -0.0122. It also gave a Bliss excess [40] of 0.0401, a Bliss excess [41] of 0.0439 and a Bliss excess [42] of 0.0627. For the same molecule, the Bliss excess [43] was 0.0301, the Bliss excess [44] was 0.105 and the Bliss excess [45] was 0.0307. For the same molecule, the Bliss excess (CAL-72 (Osteosarcoma) [46]) was 0.0042.

For `Cc1c2c(nn1C)CSCc1cc(n(C)n1)CSc1cc(c3ccccc3c1)OCCCc1c(C(=O)O)n(C)c3c-2c(Cl)ccc13` [AZD5991] + CC(=O)O[C@H]1C(=O)[C@@]2(C)[C@H]([C@H](OC(=O)c3ccccc3)[C@]3(O)C[C@H](OC(=O)[C@H](O)[C@@H](NC(=O)c4ccccc4)c4ccccc4)C(C)=C1C3(C)C)[C@]1(OC(C)=O)CO[C@@H]1C[C@@H]2O [Paclitaxel] (first compound max 1 µM, 7x7, partner max 3 µM), the “combination Emax” value [1] was 1, the “combination Emax” value [2] was 0.998 and the “combination Emax” value [3] was 0.175. The “combination Emax” value [4] was 0.463, the “combination Emax” value [5] was 0.852 and the “combination Emax” value [6] was 0.929. The “combination Emax” value (GAMG (Glioblastoma) [7]) was 0.999, the “combination Emax” value [8] was 0.87 and the “combination Emax” value (KS-1 (Glioblastoma) [9]) was 0.582. For the same molecule, the “combination Emax” value [10] was 0.549, the “combination Emax” value (EW-11 (Ewing's Sarcoma) [11]) was 0.895 and the “combination Emax” value [12] was 1. The “combination Emax” value (MPP-89 (Mesothelioma) [13]) was 0.557, the “combination Emax” value [14] was 0.836 and the “combination Emax” value (A673 (Ewing's Sarcoma) [15]) was 0.95. The “combination Emax” value (LOXIMVI (Melanoma) [16]) was 0.755, the “combination Emax” value [17] was 0.412 and the “combination Emax” value [18] was 0.315. The “combination Emax” value [19] was 0.707, the “combination Emax” value [20] was 0.899 and the “combination Emax” value [21] was 0.66. The “combination Emax” value [22] was 0.325, the “combination Emax” value (CAL-72 (Osteosarcoma) [23]) was 0.736 and the Bliss excess [24] was 0.0119. The Bliss excess [25] was -0.0565, the Bliss excess [26] was 0.0015 and the Bliss excess [27] was -0.0691. It also gave a Bliss excess [28] of -0.0476, a Bliss excess [29] of -0.0264 and a Bliss excess (GAMG (Glioblastoma) [30]) of 0.039. The Bliss excess [31] was 0.0737, the Bliss excess (KS-1 (Glioblastoma) [32]) was -0.0057 and the Bliss excess [33] was -0.0164. For the same molecule, the Bliss excess (EW-11 (Ewing's Sarcoma) [34]) was 0.0039, the Bliss excess [35] was 0.0341 and the Bliss excess (MPP-89 (Mesothelioma) [36]) was -0.0347. For the same molecule, the Bliss excess [37] was -0.0241, the Bliss excess (A673 (Ewing's Sarcoma) [38]) was 0.0296 and the Bliss excess (LOXIMVI (Melanoma) [39]) was -0.0081. The Bliss excess [40] was -0.0892, the Bliss excess [41] was 0.0224 and the Bliss excess [42] was -0.0389. For the same molecule, the Bliss excess [43] was -0.0447, the Bliss excess [44] was 0.0067 and the Bliss excess [45] was -0.0404. It also gave a Bliss excess (CAL-72 (Osteosarcoma) [46]) of -0.0853.
